Test results published in patent US20180346518A1, “LYSOBACTIN FOR USE IN THE TREATMENT OF BOVINE MASTITIS” (BAYER ANIMAL HEALTH GMBH, priority 2015, published 2018).
Values after ≈ are worked out from the molar mass of the structure shown. Numbered stars: 1 amine (or outer) side, 2 acyl side, 3 side chain; on linkers, the order of the positions; unused ones are H or OH. Bridge positions count the residues as written; N and C are the ends. Square brackets hold non-standard residues; d marks the D form. Peptide text beside a SMILES is read from it. Phe(3R-OH) = O=C([C@@H](N[*:1])[C@H](O[*:3])c1ccccc1)[*:2]; Asn(3S-OH) = NC(=O)[C@@H](O)[C@H](N)C(=O)O; Leu(3R-OH) = CC(C)[C@@H](O)[C@H](N)C(=O)O; aThr = C[C@H](O)[C@H](N)C(=O)O

Key:
[1] = tested on: Streptococcus dysgalactiae; experiment: microbroth dilution MIC (CLSI), MIC90; format: cell-based
Protocol: (§1) The in vitro antibacterial activity of lysobactin against common mastitis pathogens such as Staphylococcus aureus, Coagulase-negative staphylococci, Streptococcus uberis, Streptococcus dvsgalactiae, Streptococcus agalactiae, Trueperella pyogenes, Escherichia coli, or Klebsiella pneumoniae was assessed by microbroth dilution MIC methodology as described by the Clinical and Laboratory Standards Institute (CLSI) in order to obtain the Minimal Inhibitory Concentration (MIC), which is defined as the lowest concentration of a substance that prevents visible growth of a bacterium. The results expressed as MIC90 are summarized in the following table, where the MIC90 is defined as the concentration at which the growth of at least 90% of the strains of a given species is inhibited.

Streptococcus agalactiae = experiment: microbroth dilution MIC (CLSI), MIC90; format: cell-based
Protocol: as §1

Staphylococcus aureus [2] = experiment: microbroth dilution MIC (CLSI), MIC90; format: cell-based
Protocol: as §1

Escherichia coli = experiment: microbroth dilution MIC (CLSI), MIC90; format: cell-based
Protocol: as §1

Klebsiella pneumoniae = experiment: microbroth dilution MIC (CLSI), MIC90; format: cell-based
Protocol: as §1

Streptococcus uberis [3] = experiment: microbroth dilution MIC (CLSI), MIC90; format: cell-based
Protocol: as §1

Trueperella pyogenes = experiment: microbroth dilution MIC (CLSI), MIC90; format: cell-based
Protocol: as §1

[4] = tested on: Coagulase-negative staphylococci; experiment: microbroth dilution MIC (CLSI), MIC90; format: cell-based
Protocol: as §1

S. aureus = experiment: resistance development during serial passaging; format: cell-based, Staphylococcus aureus; details: constant sub-MIC exposure, 33 days
Protocol: The appearance of MIC changes during constant exposure of bacteria to sub-MIC concentrations of lysobactin was assessed by serial passaging experiments. On the first day the MICs of S. aureus and S. uberis were assessed by microbroth dilution MIC methodology as described by the Clinical and Laboratory Standards Institute (CLSI). Each day for the following 33 consecutive days, bacteria from the well containing the highest concentrations allowing full growth were collected and used to inoculate new 96-well plates and to assess the MIC during constant exposure to lysobactin. The MIC obtained on each day was plotted over time. Rifampicin, which is known to result in quick changes of the MIC, was used as positive control.

in vivo = experiment: in vivo; set-up: species or system Holstein cows; details: female, Holstein, bovine, 150 mg
Protocol: The study was designed as a non-pivotal study suitable to investigate the milk pharmacokinetics of the active substance lysobactin after single intracisternal application to lactating dairy cows. The active substance was provided in a paraffine based service formulation suitable for intracisternal application containing 150 mg lysobactin B in 10 g oily suspension. The test item was administered as single intracisternal treatment at a dose rate of 150 mg lysobactin to a single hind quarter of four lactating dairy cows each. The dairy cows on study (Holstein cows) represented the target population in age, lactation number, lactation stage, milk yield and breed. The animals were stalled in a tie-barn and were fed with standard feed for dairy cows consisting of corn and grass silage and milk performance feed. Milking was twice daily at a 12 hour interval using a bucket-type milking device. Frequent milk sampling was performed from the treated and respective control quarters prior to (0 h) and over a period of 168 h after treatment (0.5, 1, 2, 4, 6, 8, 12, 24, 36, 48, 60, 72, 84, 96, 120, 144, and 168 h) by manual stripping of the respective udder quarters. Milk samples at routine milking times were gathered prior to milking. Concentrations of the active substance lysobactin in milk were analyzed by HPLC with detection by tandem mass spectrometry. The limit of quantitation was 0.05 mg/L. Pharmacokinetic evaluation of milk concentration data was based on non-compartmental methods and comprised PK-parameters to adequately describe the absorption, distribution and elimination profile of the active substance in milk.

Staphylococcus aureus [5] = experiment: Staphylococcus aureus acute mouse mastitis model; format: in vivo, lactating CD-1 mice
Protocol: The efficacy of lysobactin (formulated in a hydrogel at pH 4.7) was tested in a Staphylococcus aureus acute mouse mastitis model established at the University of Sherbrooke, Canada (Broui-llette et al, Vet. Microbiol. (2004) 4:253-262), that is hereby incorporated by reference. Both the abdominal mammary glands (L4 and R4) of lactating CD-1 mice were intramammarily infected with 100 CFU (colony forming units) of S. aureus. The mice were treated intramammarily with lysobactin four hours after infection. Each treatment group contained at least 3 mice (6 quarters) 14 hours later (18 hours after inoculation) mice were sacrificed, mammary glands were harvested and the CFU content evaluated by plating 10-fold serial dilutions of mammary gland homogenates. The CFU content was expressed as log10 count. The detection limit was 200 CFU/g of gland. Glands with less than 200 CFU/g were regarded as cleared.

Streptococcus uberis [6] = experiment: dairy cow udder infection model with S. uberis; format: in vivo, lactating dairy cows
Protocol: Seventy-two healthy lactating dairy cows were experimentally infected with the mastitis pathogen Streptococcus uberis on two udder quarters per cow. […] Treatments were randomly assigned to 41 (clinical) or 37 (microbiological) udder quarters in total, either 50 mg lysobactin per quarter (in 15/13 quarters), or 150 mg lysobactin (in 15/14 quarters), or Ubrolexin® (in 11/10 quarters) as positive control. The diseased quarters were treated with these intramammary formulations two times with an interval of 24 hours in between. Udders were clinically examined and milk samples were taken before treatment and several times after that until three weeks after the second administration. Milk was inspected visually for deviation in its consistency and samples were evaluated for presence of the challenge organism to confirm the diagnosis mastitis. Diseased udder quarters were considered microbiologically cured when Streptococcus uberis found in milk samples shortly before treatment could not be isolated from any milk sample taken within the time period between the seventh and the twenty-first day after the second treatment. Clinical cure was achieved when the local symptoms of mastitis completely disappeared or were at the most of very slight nature.

[7] = 150 mg per quarter, Day 7 after second treatment

## CC[C@H](C)[C@@H]1NC(=O)[C@@H](CCCNC(=N)N)NC(=O)[C@H](CC(C)C)NC(=O)[C@H]([C@H](O)C(C)C)NC(=O)[C@@H](NC(=O)[C@H](CC(C)C)NC(=O)[C@H](N)CC(C)C)[C@@H](c2ccccc2)OC(=O)[C@H](CO)NC(=O)[C@H]([C@H](O)C(N)=O)NC(=O)CNC(=O)[C@H]([C@H](C)O)NC1=O [lysobactin] (H-[dL]L[Phe(3R-OH)][Leu(3R-OH)]L[dR]I[aThr]G[Asn(3S-OH)]S; ester 3-C)
[1]
  MIC90: 0.25 µg/mL (≈ 0.196 µM)
Streptococcus agalactiae
  MIC90: 0.25 µg/mL (≈ 0.196 µM)
Staphylococcus aureus [2]
  MIC90: 0.5 µg/mL (≈ 0.392 µM)
Escherichia coli
  MIC90: > 16 µg/mL
Klebsiella pneumoniae
  MIC90: > 16 µg/mL
Streptococcus uberis [3]
  MIC90: 0.125 µg/mL (≈ 0.0979 µM)
Trueperella pyogenes
  MIC90: 0.5 µg/mL (≈ 0.392 µM)
[4]
  MIC90: 0.5 µg/mL (≈ 0.392 µM)
S. aureus
  MIC change during serial passaging: remain constant
In vivo
  AUC(0-inf): 2320 µg·h/mL
  Cmax: 342 µg/mL
  Tmax: 4 h
  half-life: 11.6 h
In vivo; AUC0-12 h
  AUC(0-t): 1870 µg·h/mL
In vivo; AUC0-24 h
  AUC(0-t): 2210 µg·h/mL
Staphylococcus aureus [5]; 50 μg intramammary, hydrogel pH 4.7, 4 h after infection, glands harvested 18 h after inoculation
  reduction of median CFU content of mammary glands: ca. 4 log10
Staphylococcus aureus [5]; 400 μg intramammary, hydrogel pH 4.7, cleared = less than 200 CFU/g of gland
  clearance of infection from glands: eliminates the infection from all infected glands
Streptococcus uberis [6]; 50 mg per quarter, 2 treatments 24 h apart, Day 7 after second treatment
  microbiological cure rate: 84.6%
Streptococcus uberis [6]; 50 mg per quarter, Day 7 after second treatment
  local clinical cure rate: 86.7%
Streptococcus uberis [6]; 50 mg per quarter, Day 21 after second treatment
  microbiological cure rate: 92.31%
Streptococcus uberis [6]; [7]
  local clinical cure rate: 86.7%
  microbiological cure rate: 71.4%
Streptococcus uberis [6]; 150 mg per quarter, Day 21 after second treatment
  microbiological cure rate: 85.71%
